The term IC50 denotes the point on the concentration scale where inhibition reaches its midpoint. The TGI is the reduction of tumour growth relative to the control group.

From ChEMBL document CHEMBL4152282, “Synthesis and photodynamic activities of integrin-targeting silicon(IV) phthalocyanine-cRGD conjugates” (Eur J Med Chem, 2018) come the findings set out here.

The nature of data set [1]: Aggregation behavior of compound in RPMI 1640 medium with 0.05% cremophor EL at 3 uM by UV-vis absorption spectra analysis. It counts as physicochemical.
Data set [2] in a line: Aggregation behavior of compound in DMF at 1 to 6 uM by UV-vis absorption spectra analysis. It counts as physicochemical.
The nature of data set [3]: Photostability in DMF assessed as release of singlet oxygen at 4 uM preincubated with DPBF in dark followed by irradiation with red light by DPBF decay assay. In kind it is functional.
Data set [4] is described as follows: Aggregation behavior of compound in water at 3 uM by UV-vis absorption spectra analysis. As to conditions: buffer; call rule not given here. It counts as physicochemical.
In data set [5] the test system is HT-29. Nature of the data set: Photocytotoxicity against human HT-29 cells with high expression of alphaVbeta3 integrin assessed as decrease in cell viability preincubated for 2 hrs followed by red light irradiation and measured after overnight incubation by MTT assay. It counts as functional, cell-based. The following applies: HT-29, light or radiation study. For orientation: Tetrazolium assays rely on reduction of a dye to a coloured formazan, in cell work by metabolically active cells.

Data set [6] concerns HT-29. Put plainly: Photocytotoxicity against human HT-29 cells with high expression of alphaVbeta3 integrin assessed as decrease in cell viability preincubated for 24 hrs followed by red light irradiation and measured after overnight incubation by MTT assay. In kind it is functional, cell-based. The following applies: HT-29, light or radiation study.
Data set [7] has as its system MCF7. Nature of the data set: Photocytotoxicity against human MCF7 cells with low expression of alphaVbeta3 integrin assessed as decrease in cell viability preincubated for 2 hrs followed by red light irradiation and measured after overnight incubation by MTT assay. In kind it is functional, cell-based. The following applies: MCF7, light or radiation study.
In data set [8] the test system is MCF7. Nature of the data set: Photocytotoxicity against human MCF7 cells with low expression of alphaVbeta3 integrin assessed as decrease in cell viability preincubated for 24 hrs followed by red light irradiation and measured after overnight incubation by MTT assay. In kind it is functional, cell-based. The following applies: MCF7, light or radiation study.
A short description of data set [9]: Selectivity ratio of IC50 for human MCF7 cells with low expression of alphaVbeta3 integrin to IC50 for human HT-29 cells with high expression of alphaVbeta3 integrin preincubated for 2 hrs followed by red light irradiation and measured after overnight incubation by MTT assay. In kind it is functional.
Data set [10] can be described thus: Selectivity ratio of IC50 for human MCF7 cells with low expression of alphaVbeta3 integrin to IC50 for human HT-29 cells with high expression of alphaVbeta3 integrin preincubated for 24 hrs followed by red light irradiation and measured after overnight incubation by MTT assay. In kind it is functional.
A short description of data set [11]: Dark toxicity against human HT-29 cells with high expression of alphaVbeta3 integrin assessed as decrease in cell viability incubated for 2 to 24 hrs by MTT assay. In kind it is cell-based.
The nature of data set [12]: Dark toxicity against human MCF7 cells with low expression of alphaVbeta3 integrin assessed as decrease in cell viability incubated for 2 to 24 hrs by MTT assay. In kind it is cell-based.
Data set [13] relates to HaCaT. Nature of the data set: Photocytotoxicity against human HaCaT cells assessed as decrease in cell viability preincubated for 2 hrs followed by red light irradiation and measured after overnight incubation by MTT assay. In kind it is cell-based. The following applies: light or radiation study.
Data set [14] has as its system HaCaT. Nature of the data set: Photocytotoxicity against human HaCaT cells assessed as decrease in cell viability preincubated for 24 hrs followed by red light irradiation and measured after overnight incubation by MTT assay. In kind it is cell-based. The following applies: light or radiation study.
Data set [15] is described as follows: Selectivity index, ratio of IC50 for photocytotoxicity against human HaCaT cells to IC50 for photocytotoxicity against human HT-29 cells with high expression of alphaVbeta3 integrin. It counts as toxicity, cell-based. The following applies: read-out: Ratio IC50.
A short description of data set [16]: Drug uptake in human MCF7 cells at 1 uM after 24 hrs by confocal laser scanning microscopic method. It counts as ADME, cell-based. The following applies: mcf7, 24 h.
The subject of data set [17] is HT-29. Nature of the data set: Induction of reactive oxygen species formation in human HT-29 cells with high expression of alphaVbeta3 integrin preincubated for 2 hrs followed by DCF-DA dye addition and measured after 30 mins in absence of light by fluorescence assay. As to conditions: ht-29, 0.5 h. In kind it is cell-based.
The subject of data set [18] is MCF7. Nature of the data set: Induction of reactive oxygen species formation in human MCF7 cells with low expression of alphaVbeta3 integrin preincubated for 2 hrs followed by DCF-DA dye addition and measured after 30 mins in absence of light by fluorescence assay. As to conditions: mcf7, 0.5 h. In kind it is cell-based.
The subject of data set [19] is HT-29. Put plainly: Induction of reactive oxygen species formation in human HT-29 cells with high expression of alphaVbeta3 integrin preincubated for 2 hrs followed by incubation with DCF-DA dye for 30 mins and measured after irradiation by fluorescence assay. It counts as functional, cell-based.
The subject of data set [20] is MCF7. Put plainly: Induction of reactive oxygen species formation in human MCF7 cells with […] expression of alphaVbeta3 integrin preincubated for 2 hrs followed by incubation with DCF-DA dye for 30 mins and measured after irradiation by fluorescence assay. In kind it is functional, cell-based.
Data set [21] is described as follows: Drug uptake in lysosome of human HT-29 cells at 1 uM incubated for 0.5 hrs by Lyso Tracker red dye-based confocal laser scanning microscopic method. In kind it is ADME, subcellular. As to conditions: ht-29, 0.5 h.
For data set [22], the system named is Mus musculus. Put plainly: Drug uptake in KM mouse xenografted with […] cells at 0.5 nmol/g, iv measured up to 24 hrs by fluorescence imaging method. In kind it is ADME, organism-based. As to conditions: in vivo.
A short description of data set [23]: Drug uptake in tumor of KM mouse xenografted with […] cells expressing integrin at 0.5 nmol/g, iv measured after 1 to 24 hrs by fluorescence imaging method. In kind it is ADME, organism-based, Neoplasm. The following applies: in vivo. A general note: In xenograft studies the graft and the host belong to different species.
The test system of data set [24] is Mus musculus. Nature of the data set: Drug uptake in KM mouse xenografted with […] cells at 0.5 nmol/g, iv measured after 24 hrs by fluorescence imaging method. It counts as ADME, organism-based. The following applies: in vivo.
Data set [25] can be described thus: Ratio of drug level in tumor of KM mouse xenografted with […] cells expressing integrin to liver of KM mouse xenografted with […] cells at 0.5 nmol/g, iv measured after 24 hrs. It counts as ADME, organism-based, Tumor/tissue. As to conditions: in vivo.
Data set [26] is described as follows: Ratio of drug level in tumor of KM mouse xenografted with […] cells expressing integrin to kidney of KM mouse xenografted with […] cells at 0.5 nmol/g, iv measured after 24 hrs. In kind it is ADME, organism-based, Tumor/tissue. As to conditions: in vivo.
The subject of data set [27] is H22. Put plainly: Antitumor activity against […] cells expressing integrin xenografted in KM mouse assessed as tumor growth inhibition at 0.5 nmol/g, iv administered 12 hrs followed by irradiation with laser for 6 mins and measured after 14 days. It counts as functional.
In data set [28] the test system is H22. Put plainly: Dark toxicity against […] cells expressing integrin xenografted in KM mouse at 0.5 nmol/g, iv administered 12 hrs measured every other day for 14 days. In kind it is organism-based. As to conditions: in vivo, 336 h.
Data set [29] is described as follows: Aggregation behavior of compound in DMF by UV-vis absorption spectra analysis. It counts as physicochemical.
The nature of data set [30]: Drug uptake in human HT-29 cells at 1 uM after 2 to 24 hrs by confocal laser scanning microscopic method. In kind it is ADME, cell-based. As to conditions: ht-29, 1 µM.
The nature of data set [31]: Drug uptake in mitochondria of human HT-29 cells at 1 uM incubated for 0.5 hrs by Mito Tracker green dye-based confocal laser scanning microscopic method. It counts as ADME. As to conditions: ht-29, 0.5 h.
A short description of data set [32]: Drug uptake in tumor of KM mouse xenografted with […] cells expressing integrin at 0.5 nmol/g, iv measured after 24 hrs by fluorescence imaging method. It counts as ADME, organism-based, Neoplasm. As to conditions: in vivo.
Data set [33] can be described thus: Drug uptake in heart of KM mouse xenografted with […] cells expressing integrin at 0.5 nmol/g, iv measured after 24 hrs by fluorescence imaging method. As to conditions: in vivo. In kind it is ADME, organism-based.
The nature of data set [34]: Drug uptake in liver of KM mouse xenografted with […] cells expressing integrin at 0.5 nmol/g, iv measured after 24 hrs by fluorescence imaging method. It counts as ADME, organism-based. The following applies: in vivo.
The nature of data set [35]: Drug uptake in spleen of KM mouse xenografted with […] cells expressing integrin at 0.5 nmol/g, iv measured after 24 hrs by fluorescence imaging method. It counts as ADME, organism-based. The following applies: in vivo.
Data set [36] can be described thus: Drug uptake in lung of KM mouse xenografted with […] cells expressing integrin at 0.5 nmol/g, iv measured after 24 hrs by fluorescence imaging method. It counts as ADME, organism-based. As to conditions: in vivo.
The nature of data set [37]: Drug uptake in kidney of KM mouse xenografted with […] cells expressing integrin at 0.5 nmol/g, iv measured after 24 hrs by fluorescence imaging method. In kind it is ADME, organism-based. As to conditions: in vivo.
Data set [38] in a line: Drug uptake in skin of KM mouse xenografted with […] cells expressing integrin at 0.5 nmol/g, iv measured after 24 hrs by fluorescence imaging method. It counts as ADME, organism-based, Zone of skin. As to conditions: in vivo.

For the compound `N=C(N)NCCC[C@@H]1NC(=O)[C@H](Cc2cn(CCOCCOCCO[Si]3(OCCOCCOCCn4cc(C[C@@H]5NC(=O)[C@@H](Cc6ccccc6)NC(=O)[C@H](CC(=O)O)NC(=O)CNC(=O)[C@H](CCCNC(=N)N)NC5=O)nn4)n4c5c6ccccc6c4/N=C4N=C(/N=c6/c7ccccc7/c(n63)=N/C3=NC(=N\5)/c5ccccc53)c3ccccc3\4)nn2)NC(=O)[C@@H](Cc2ccccc2)NC(=O)[C@H](CC(=O)O)NC(=O)CNC1=O` (some centres not stated), the Activity entry is recorded as “Not Active” in [1]; “Not Active” in data set [2]; “Not Active” in data set [4]; “Non-Toxic” in [11]; “Non-Toxic” in [12]; “Non-Toxic” in data set [17]. Further, the Activity entry in data set [18] is “Non-Toxic”; in [19], “Dose-dependent effect”; in [20], “Dose-dependent effect”; in data set [28], “Non-Toxic”. Further, in data set [3], the Stability entry is “Unstable”. Also, the IC50 is 30 nM in [5]; 23 nM in data set [6]; 100 nM in data set [7]; 66 nM in data set [8]; 60 nM in data set [13]; 56 nM in [14]. In addition, the “Ratio IC50” value in data set [9] worked out at 3.33; in data set [10], 2.87. Besides, the selectivity ratio in data set [15] came to 2. Further, the Drug uptake result in data set [16] was “Not Active”; in data set [21] it was “Active”; in data set [22], “Active”; in data set [23], “Active”; in data set [24] it was “Not Active”. Further, the Ratio is 2.1 in data set [25] and 2 in data set [26]. The TGI in data set [27] came out at 75%.
Turning to `OCCOCCOCCO[Si]1(OCCOCCOCCO)n2c3c4ccccc4c2/N=C2N=C(/N=c4/c5ccccc5/c(n41)=N/C1=NC(=N\3)/c3ccccc31)c1ccccc1\2`, the Activity result in data set [29] is “Not Active”. For the same compound, the Stability result in [3] was “Unstable”. Also, the IC50 in data set [5], in data set [6], in data set [7] and in data set [8] was 0.3 nM in each case. Besides, the “Ratio IC50” value in data set [9] and in [10] was 1 in each case. Also, the Drug uptake entry in data set [30] is on record as “Active”; in data set [21], “Active”; in data set [31], “Active”; in [22], “Not Active”; in data set [32] it was “Not Active”; in [33] it was “Not Active”. For the same compound, the Drug uptake result in data set [34], in [35], in data set [36], in data set [37] and in data set [38] was “Not Active” throughout.
